According to patent US20250313635A1, “ANTI-INTEGRIN ANTIBODIES AND USES THEREOF” (Merck Sharp & Dohme LLC, priority 2022, published 2025):

System: CHOK1 parental cells
Test: Cell adhesion assay, CHOK1 parental cells on fibronectin
Type: cell-based, hamster
Details: FIG. 11

Structure (SMILES): COc1ccc([C@H](CC(=O)O)N2CCN(CCCc3ccc4c(n3)NCCC4)C2=O)cn1 [MK-0429, (3S)-3-(6-methoxypyridin-3-yl)-3-[2-oxo-3-[3-(5,6,7,8-tetrahydro-1,8-naphthyridin-2-yl)propyl]imidazolidin-1-yl]propanoic acid]
- inhibition of adhesion of CHOK1 parental cells on fibronectin: little inhibitory activity
